The results in this text go back to patent US9090621B2, “Tyrosine kinase inhibitors” (Principia Biopharma Inc., priority 2013, dated 2015).

By IC50 is commonly meant the concentration needed to halve the response being measured.

For one experiment, the system named is protein target. Description: Reversibility of Binding (compound in solution before and after perturbation of the target, HPLC-MS/MS). Conditions: for Compound in solution in the denatured or digested state?: after denaturation with 5 M guanidine hydrochloride and digestion with trypsin; for Compound in solution in the native state?: protein target at a higher concentration than the compound, before perturbation. As to the method: The following approach was developed to differentiate compounds that form irreversible bonds with their targets, such as acrylamide compounds, from compound that bind reversibly. […] The reactions were then treated with perturbations including both denaturation with 5 M guanidine hydrochloride and digestion with trypsin, disrupting proper folding of the target. […] The concentration of compound in solution was assessed both preceding and following perturbation using high performance liquid chromatography (HPLC) coupled to tandem mass spectrometry.

The target of a further experiment is human recombinant Btk (Homo sapiens (Human), UniProt Q06187). Description: biochemical.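 Also: Read-out is the quantity of phosphorylated substrate product formed, and IC50 reflects inhibition of Btk kinase activity.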
Chain of human recombinant Btk (Q06187 whole entry): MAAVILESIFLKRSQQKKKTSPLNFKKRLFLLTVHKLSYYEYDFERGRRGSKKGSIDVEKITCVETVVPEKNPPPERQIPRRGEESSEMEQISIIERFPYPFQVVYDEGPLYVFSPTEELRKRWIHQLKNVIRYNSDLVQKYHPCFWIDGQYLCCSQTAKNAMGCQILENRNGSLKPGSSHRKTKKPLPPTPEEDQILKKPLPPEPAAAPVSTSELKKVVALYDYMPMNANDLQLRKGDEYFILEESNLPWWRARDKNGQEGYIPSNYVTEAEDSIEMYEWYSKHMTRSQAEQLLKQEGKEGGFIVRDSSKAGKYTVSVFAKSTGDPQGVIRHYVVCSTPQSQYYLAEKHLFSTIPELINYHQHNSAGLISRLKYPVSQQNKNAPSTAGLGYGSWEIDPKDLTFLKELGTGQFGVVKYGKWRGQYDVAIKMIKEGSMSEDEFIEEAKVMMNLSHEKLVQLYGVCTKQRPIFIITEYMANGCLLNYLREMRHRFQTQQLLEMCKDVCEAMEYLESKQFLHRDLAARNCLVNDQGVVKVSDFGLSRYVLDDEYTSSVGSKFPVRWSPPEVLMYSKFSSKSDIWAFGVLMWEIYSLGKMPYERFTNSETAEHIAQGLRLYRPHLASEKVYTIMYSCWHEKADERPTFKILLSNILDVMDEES

Protocol for human recombinant Btk: A Caliper-based kinase assay (Caliper Life Sciences, Hopkinton, Mass.) was used to measure inhibition of Btk kinase activity of a compound of Formula (IA), (I′) or (I). […] The reaction was then terminated with EDTA, final concentration 20 mM and the phosphorylated reaction product was quantified on a Caliper Desktop Profiler (Caliper LabChip 3000). […] This value is presented as the IC50.

As to `N#CC(=CC1CC1)C(=O)N1CCC[C@@H](n2cc(-c3ccc(Oc4ccccc4)cc3)c3c(N)ncnc32)C1` [Example 27, (R)-2-(3-(4-amino-5-(4-phenoxyphenyl)-7H-pyrrolo[2,3-d]pyrimidin-7-yl)piperidine-1-carbonyl)-3-cyclopropylacrylonitrile], in the experiment on protein target, the “Compound in solution in the denatured or digested state?” value is “yes”; the “Compound in solution in the native state?” value was “depleted in the folded state and no”.
For the molecule `Cc1cc(Oc2ccccc2)ccc1-c1nn(C[C@H]2CCCN2C(=O)C(C#N)=CC2CC2)c2ncnc(N)c12` [Example 69A, (R)-2-(2-((4-amino-3-(2-methyl-4-phenoxyphenyl)-1H-pyrazolo[3,4-d]pyrimidin-1-yl)methyl)pyrrolidine-1-carbonyl)-3-cyclopropylacrylonitrile], on human recombinant Btk, the IC50 was 5 nM.
Turning to `CC(C)C=C(C#N)C(=O)N1CCC[C@H]1Cn1nc(-c2ccc(Oc3cccc(F)c3)cc2F)c2c(N)ncnc21` [Example 73B, (S)-2-(2-((4-amino-3-(2-fluoro-4-(3-fluorophenoxy)phenyl)-1H-pyrazolo[3,4-d]pyrimidin-1-yl)methyl)pyrrolidine-1-carbonyl)-4-methylpent-2-enenitrile], the concentration for half-maximal inhibition (IC50) at human recombinant Btk worked out at 11 nM.
With `CC(C)C=C(C#N)C(=O)N1CCC[C@H]1Cn1nc(-c2ccc(Oc3c(F)cccc3F)cc2)c2c(N)ncnc21` [Example 75B, (S)-2-(2-((4-amino-3-(4-(2,6-difluorophenoxy)phenyl)-1H-pyrazolo[3,4-d]pyrimidin-1-yl)methyl)pyrrolidine-1-carbonyl)-4-methylpent-2-enenitrile], the IC50 at human recombinant Btk stood at 100 nM.
Consider `CC(C)C=C(C#N)C(=O)N1CCC[C@H]1Cn1nc(-c2ccc(Oc3cccc(F)c3F)cc2)c2c(N)ncnc21` [Example 76B, (S)-2-(2-((4-amino-3-(4-(2,3-difluorophenoxy)phenyl)-1H-pyrazolo[3,4-d]pyrimidin-1-yl)methyl)pyrrolidine-1-carbonyl)-4-methylpent-2-enenitrile], for which the IC50 on human recombinant Btk was 7 nM.
In the case of `C[C@@H](Cn1nc(-c2ccc(Oc3ccccc3)cc2F)c2c(N)ncnc21)NC(=O)C(C#N)=CC(C)(C)N(C)C` [Example 185B, (S)-N-(1-(4-amino-3-(2-fluoro-4-phenoxyphenyl)-1H-pyrazolo[3,4-d]pyrimidin-1-yl)propan-2-yl)-2-cyano-4-(dimethylamino)-4-methylpent-2-enamide], on human recombinant Btk, the IC50 turned out to be 11 nM.
Consider `C=CC(=O)N1CCC[C@@H](n2nc(-c3ccc(Oc4ccccc4)cc3)c3c(N)ncnc32)C1` [acrylamide-containing compound 1, reference compound], for which, in the experiment on protein target, the “Compound in solution in the denatured or digested state?” value was “depleted from solution in both the native and perturbed state”; the “Compound in solution in the native state?” value is “depleted from solution in both the native and perturbed state”.
